# Entries after “also recorded” stand apart in the source; their conditions may differ. Read-outs that look alike come from different tables or passages of the source. Numbered stars: 1 amine (or outer) side, 2 acyl side, 3 side chain; on linkers, the order of the positions; unused ones are H or OH. Bridge positions count the residues as written; N and C are the ends. Square brackets hold non-standard residues; d marks the D form. Peptide text beside a SMILES is read from it. X2 = CC(C)CCCCCCCCC[C@H](CC(=O)[*:1])O[*:2]
# What was measured:
# [1] = alamarBlue cytotoxicity assay, HEK293 cells; type: cell-based, human; details: human; HEK293, 72 h exposure, alamarBlue; read-out: IC50 (cytotoxic level)
# Experimental: (§1) To perform cytotoxicity assay, two batches of concentrated lichenysin were prepared from biomass grown on LB agar plates as described in section “Extraction of Lichenysin From Biomass Collected From Surface Growth on LB Agar and Skimmed Milk Agar.” Instead of using 150 mg biomass, lichenysin was extracted from 6.5 g of biomass from strain B4123, and dissolved in a final volume of 300 μl methanol. A small aliquot of 1 μl was taken to determine the concentration of the concentrated lichenysin extract via Reversed-Phase High-Performance Liquid Chromatography – Electro Spray Ionization Mass Spectrometry (RP-HPLC-ESI-MS). […]
# (§2) The alamarBlue (Thermo Fischer Scientific) fluorometric assay was used to examine the cytotoxicity of lichenysin and surfactin toward two human cell lineages (HEK293, Caco-2) and ileum organoids from pigs. Culturing medium DMEM with Alamar blue (i.e., a no-cells control) and cells exposed to 10% DMSO were used to correct for background fluorescence and cell death, respectively. […]
# (§3) The alamarBlue assay was performed as described in [Burczynski et al. (2000)], [Hamid et al. (2004)], and [Rampersad (2012)]. […] The fluorescence at the emission wavelength of 590 nm was measured with a SpectraMax M5 (Molecular Devices, San Jose, CA, United States) and expressed as relative fluorescence units. […]
# (§4) The cell viability (%) was calculated by using the formula: […]
# [2] = system: Human Embryonic Kidney (HEK293) cells; assay: alamarBlue cytotoxicity assay, HEK293 cells; type: cell-based; details: HEK293, 200 μM (∼200 μg/ml), exposure for 72 h
# Experimental: as §1, §2, §3, §4
# [3] = alamarBlue cytotoxicity assay, Caco-2 cells; type: cell-based, human; details: human, Caco-2, 72 h exposure, alamarBlue; read-out: IC50 (cytotoxic level)
# Experimental: (§5) To perform cytotoxicity assay, two batches of concentrated lichenysin were prepared from biomass grown on LB agar plates as described in section “Extraction of Lichenysin From Biomass Collected From Surface Growth on LB Agar and Skimmed Milk Agar.” Instead of using 150 mg biomass, lichenysin was extracted from 6.5 g of biomass from strain B4123, and dissolved in a final volume of 300 μl methanol. A small aliquot of 1 μl was taken to determine the concentration of the concentrated lichenysin extract via Reversed-Phase High-Performance Liquid Chromatography – Electro Spray Ionization Mass Spectrometry (RP-HPLC-ESI-MS). The remaining concentrated extract was entirely evaporated under a flow of nitrogen at 40°C in a heating block. The dry residue was resuspended in either 99% Dimethyl Sulfoxide (DMSO) or Dulbecco’s Modified Eagle Medium (DMEM; Gibco, Thermo Fischer Scientific, Bleiswijk, Netherlands) without phenol red serum or antibiotics. Surfactin (purchased from Merck) was also used in cytotoxicity assays by dissolving 10 mg in 1 ml of distilled water (10 mM) (with an adjusted pH of ∼11.7 to obtain full solubility). Both lichenysin and surfactin were diluted to the desired concentration in DMEM medium without phenol red, serum and antibiotics before adding to the cells.
# (§6) Human Embryonic Kidney (HEK293) cells were obtained from Invivogen (San Diego, CA, United States), and Caco-2 human intestinal epithelial cells (ATCC HTB-37) were purchased from the American Type Culture Collection (Manassas, VA, United States). Both cell lines were maintained in DMEM medium containing 10 % Fetal Bovine Serum (FBS) (Thermo Fischer Scientific) and 1 % penicillin/streptomycin (Merck) to attain a confluent growth. The grown HEK293 and Caco-2 cells were seeded and suspended at a final concentration of 2 × 10^5 cells/ml (in 200 μl) in 96 wells-plates (Greiner). […]
# as §2
# (§7) The alamarBlue assay was performed as described in [Burczynski et al. (2000)], [Hamid et al. (2004)], and [Rampersad (2012)]. […] The fluorescence at the emission wavelength of 590 nm was measured with a SpectraMax M5 (Molecular Devices, San Jose, CA, United States) and expressed as relative fluorescence units. The average fluorescence of the no-cells control was used to normalize all recorded fluorescence emission values.
# as §4
# [4] = system: Caco-2 human intestinal epithelial cells; assay: alamarBlue cytotoxicity assay, Caco-2 cells; type: cell-based; details: Homo sapiens, Caco-2, 72 h
# Experimental: as §5, §6, §2, §7, §4
# [5] = alamarBlue cytotoxicity assay, pig ileum organoids; type: cell-based; details: 72 h exposure, alamarBlue, read-out: IC50 (cytotoxic level)
# Experimental: as §1, §2, §3, §4
# [6] = system: pig ileum organoids; assay: alamarBlue cytotoxicity assay, pig ileum organoids; type: cell-based; details: 200 μM, 72 h
# Experimental: as §1, §2, §3, §4
compound,measurement,setting,value
"CC(C)CCCCCCCCC[C@@H]1CC(=O)N[C@@H](CCC(=O)O)C(=O)N[C@@H](CC(C)C)C(=O)N[C@H](CC(C)C)C(=O)N[C@@H](C(C)C)C(=O)N[C@@H](CC(=O)O)C(=O)N[C@H](CC(C)C)C(=O)N[C@@H](CC(C)C)C(=O)O1 [Surfactin, cyclo-[Glu^1-Leu^2-Leu^3-Val^4-Asp^5-Leu^6-Leu^7 − − β-OH fatty acid]] (EL[dL]VD[dL]L; linker N-C via X2)",IC50,[1],> 200 µg/mL
same,toxicity at the highest tested concentration,[2],not toxic
same,IC50,[3],23.5 µg/mL
same,IC50,"[4]; Caco-2, 72 h incubation, read-out: concentration needed to reduce cell viability by 50% (IC50)",23.4 µg/mL
same,IC50,"[4]; in log10 scale, read-out: IC50 in log10 scale (converted)",1.37 µM
same,IC50,[4]; read-out: IC50,23.5 µM
same,IC50,[5],> 200 µg/mL
same,toxicity at the highest tested concentration,[6],did not show toxicity; also recorded: no toxicity was seen

# — paper PMC8859269, “Lichenysin Production by Bacillus licheniformis Food Isolates and Toxicity to Human Cells” (Frontiers in Microbiology, 2022)
